Our source for the Activity and ED50 values is ChEMBL document CHEMBL3244420, “Pyrrole esters of tropanols and related structures as analgesics” (J Med Chem, 1977).

For data set [1], the system named is Mus musculus. Briefly: Analgesic activity in mouse at 20 mg/kg, sc by hot plate method. The arrangement: dose 20 mg/kg. The data set is classed as functional, organism-based. A general note: Hot-plate and tail-flick tests time the reaction to a heat stimulus.
The test system of data set [2] is Rhesus monkey. Briefly: Toxicity in monkey assessed as morphine-like dependence liability. Type of data set: organism-based, Macaca mulatta. Conditions: in vivo.
The subject of data set [3] is Rhesus monkey. Kind of data set: Suppression of narcotic abstinence syndrome in monkey at 5 mg/kg administered as single dose. The data set is classed as functional, organism-based. The following applies: Macaca mulatta. Set-up: dose 5 mg/kg.
Data set [4] relates to Mus musculus. Briefly: Analgesic activity in sc dosed mouse by hot plate method. Type of data set: functional.
Data set [5] has as its system Mus musculus. Kind of data set: Analgesic activity in sc dosed mouse by Nilsen method. Type of data set: functional.
The test system of data set [6] is Rhesus monkey. Kind of data set: Toxicity in nonwithdrawn monkey assessed as precipitation of abstinence at 5 mg/kg. The following applies: in vivo. The arrangement: dose 5 mg/kg. The data set is classed as organism-based, Macaca mulatta.
Data set [7] relates to Mus musculus. Briefly: Analgesic activity in mouse at 100 mg/kg, sc by hot plate method. The data set is classed as functional, organism-based. Set-up: dose 100 mg/kg.
The subject of data set [8] is Mus musculus. Briefly: Analgesic activity in mouse at 50 mg/kg, sc by hot plate method. Type of data set: functional, organism-based. The arrangement: dose 50 mg/kg.
For data set [9], the system named is Rhesus monkey. Kind of data set: Suppression of narcotic abstinence syndrome in monkey at 3 to 24 mg/kg. Type of data set: functional, organism-based. The following applies: Macaca mulatta.
For data set [10], the system named is Rhesus monkey. Kind of data set: Toxicity in monkey assessed as precipitation of abstinence at 3 to 24 mg/kg. Type of data set: organism-based, Macaca mulatta. The arrangement: dose 3-24 mg/kg. The following applies: in vivo.

The source made the active and inactive calls. No cut-off for these calls is given here.

With `Cc1[nH]c(C)c(C(=O)OC2CCN(CCc3ccccc3)CC2)c1C`, the result in data set [1] was Active.

What is called ED50 is the midpoint of the dose-response relation. Regarding `Cc1[nH]c(C)c(C(=O)OC2CCN(C)CC2)c1C.O=C(O)C(F)(F)F`, the Activity entry in data set [2] and in [6] was “Non-toxic” throughout. Moreover, in [3], the outcome was inactive. Moreover, the values for the ED50 in data set [4] and in [5] were 4.9 mg/kg and 7.1 mg/kg, respectively. In the case of `CN1CC[C@]23c4c5ccc(O)c4O[C@H]2[C@@H](O)C=C[C@H]3[C@H]1C5` [MORPHINE], the ED50 in data set [4] came to 1.2 mg/kg; in [5], 0.8 mg/kg. For the compound `Cc1[nH]c(C)c(C(=O)OC2CCN(Cc3ccccc3)CC2)c1C.Cl.O`, in data set [4], the median effective dose (ED50) worked out at 6.3 mg/kg. With `Cc1[nH]c(C)c(C(=O)O[C@H]2C[C@H]3CC[C@@H](C2)N3C)c1C.O.O=C(O)C(F)(F)F`, the 50% effect level in data set [4] (ED50) was put at a dose of 21.3 mg/kg.

`Cc1[nH]c(C)c(C(=O)OC2CC(C)(C)NC(C)(C)C2)c1C`: the outcome in data set [7] was inactive. The compound `Cc1[nH]c(C)c(C(=O)OC2CCN(C)C2)c1C.Cl.O` (stereo unspecified) returned an ED50 in data set [4] of 64.3 mg/kg. As for `Cc1[nH]c(C)c(C(=O)O[C@@H]2C[C@H]3CC[C@@H](C2)N3C)c1C`, in data set [8], the outcome was Active. For `COc1ccc2c3c1O[C@H]1[C@@H](O)C=C[C@H]4[C@@H](C2)N(C)CC[C@@]341` [CODEINE], the values for the ED50 in [4] and in [5] were 7.5 mg/kg and 4.5 mg/kg, respectively. Turning to `Cc1[nH]c(C)c(C(=O)O[C@@H]2[C@H]3O[C@H]4C[C@@H]2N(C)[C@H]3C4)c1C`, the outcome in data set [9] was inactive. Besides, the ED50 is 6 mg/kg in [4] and 28.9 mg/kg in data set [5]. Moreover, in data set [10], the Activity result is reported as “Non-toxic”. Regarding `Cc1c(C(=O)OC2CCN(C)CC2)c(C)n(C)c1C`, in [1], the outcome was Active. Take `Cc1[nH]c(C)c(C(=O)OC2CCCN(C)C2)c1C` (stereo unspecified): in data set [7], the result was inactive.
